According to patent US20120134974A1, “METHODS FOR REMOVING PLASMA” (BIOVEC TRANSFUSION, LLC, priority 2010, published 2012):

How the values were obtained:
platelets = assay: thromboelastography (TEG) of platelet concentrate; assay type: cell-based; details: 2.4 mg Argatroban in 350 ml of platelets; straight line on the thromboelastogram
Method: In one experiment, platelet concentrates obtained by the buffy coat method were used for the study. Integrilin (Eptifibatide), a GPIIb/IIIa inhibitor, and Argabotran, a synthetic thrombin inhibitor, were added to platelet units at three times the therapeutic concentrations (i.e., 48 micrograms of Integrilin and 2.4 mg of Argatroban in 350 ml of platelets). Removal of the inhibitors was initiated by diafiltration. 15 ml of the platelet concentrate was diafiltered against 60 ml of a solution containing 20% fresh frozen plasma in a commercially used platelet storage solution (T-Sol). The samples were stored overnight and platelet functionality was measured on Day 2, by Thromboelastography (TEG) and using standard agonists such as TRAP and collagen.
In another experiment, Integrilin and Argabotran were added to platelet units at three times the therapeutic loading concentrations (i.e., 48 micrograms for Integrilin and 2.4 mg for Argatroban in 350 ml of platelets). Prior to the addition of the inhibitors, baseline data of platelet functionality was obtained. These baseline data included thromboelastography, which assesses overall platelet function and clot strength, as well as the TRAP test and the collagen test, which are additional markers of platelet functionality. […]

factor Xa = factor Xa (Homo sapiens, UniProt P00742); details: cited from earlier work
Chain of factor Xa (P00742 235-488 limits assumed): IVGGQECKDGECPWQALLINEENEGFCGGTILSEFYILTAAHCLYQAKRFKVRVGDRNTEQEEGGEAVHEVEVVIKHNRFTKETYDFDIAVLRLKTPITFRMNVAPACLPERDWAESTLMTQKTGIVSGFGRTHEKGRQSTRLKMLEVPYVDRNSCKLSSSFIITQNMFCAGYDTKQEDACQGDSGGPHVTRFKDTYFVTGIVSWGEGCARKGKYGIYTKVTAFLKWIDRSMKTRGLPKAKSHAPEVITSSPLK
Chain of factor Xa (P00742 41-179 partner limits assumed): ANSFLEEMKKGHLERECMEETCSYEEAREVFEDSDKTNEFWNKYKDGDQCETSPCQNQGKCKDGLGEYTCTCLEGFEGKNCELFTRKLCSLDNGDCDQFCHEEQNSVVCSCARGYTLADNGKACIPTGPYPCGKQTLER

PT and αPTT = details: more sensitive to the αPTT; cited from earlier work

Structure (SMILES)	effect on activation of platelets on the thromboelastogram (platelets)	mode of factor Xa inhibition (factor Xa)	effect on PT and αPTT (PT and αPTT)
CC1CNc2c(cccc2S(=O)(=O)N[C@@H](CCCNC(=N)N)C(=O)N2CC[C@@H](C)C[C@@H]2C(=O)O)C1 (stereo partly shown) [Argatroban]	completely blocks the activation of platelets	–	–
CC(=N)N1CC[C@H](Oc2ccc([C@H](Cc3ccc4ccc(C(=N)N)cc4c3)C(=O)O)cc2)C1 [DX-9065a]	–	competitive manner	–
COc1ccc2ccc(S(=O)(=O)N(C)[C@H]3CCN(Cc4csc(C(=N)N)c4)C3=O)cc2c1 [RPR-120844]	–	fast binding, reversible and competitive inhibitor	prolongs the PT and αPTT in a concentration-dependent manner
